# Experimental data published in US6653486B2, “Spiroorthocarbonates containing epoxy groups” (Curators of the University of Missouri, priority 1999, dated 2003).
# Key:
# [1] = Vinyl ether homopolymerization PDSC with and without EDMAB (Table 2)
# Description: For the experiments reported in Table 2, the photopolymerization of various vinyl ethers with and without the use of an electron donor to promote the reaction are reported. Data showing runs where EDMAB was used to promote the reaction are shown in parentheses after the numbers corresponding to runs without EDMAB.
compound,measurement,setting,value
"CCC(=O)OCC1(CC)COC2(OC1)OCC(CC)(COC(=O)CC)CO2 (stereo not shown) [DEDPM, 3,9-Diethyl-3,9-dipropionyloxymethyl-1,5,7,11-tetraoxaspiro[5.5]undecane]",melting point,,68.1 °C
"C=COCC1CCC(COC=C)CC1 (stereo not shown) [CHDMDVE, 1,4-cyclohexanedimethanol divinyl ether]",Rate Constant k,[1]; with EDMAB,2.8 min⁻¹
same,Rate Constant k,[1]; without EDMAB,0.5 min⁻¹
"C=COCC1CO1 (stereo not shown) [GVE, glycidyl vinyl ether]",Rate Constant k,[1]; with EDMAB,0.8 min⁻¹
same,Rate Constant k,[1]; without EDMAB,1.1 min⁻¹
"C=COCCOCCOCCOC=C [TEGDVE, tri(ethylene glycol)divinyl ether]",Rate Constant k,[1]; with EDMAB,11.1 min⁻¹
same,Rate Constant k,[1]; without EDMAB,2.1 min⁻¹
hexanediol divinyl ether [HDDVE],Rate Constant k,[1]; with EDMAB,15.5 min⁻¹
same,Rate Constant k,[1]; without EDMAB,1.4 min⁻¹
"C=COCCOC=C [EGDVE, ethylene glycol divinyl ether]",Rate Constant k,[1]; with EDMAB,10.6 min⁻¹
same,Rate Constant k,[1]; without EDMAB,3.6 min⁻¹
"FC(F)(F)C1CCOC2(OCCC(C(F)(F)F)O2)O1 (stereo not shown) [DTFM, 2,8-Ditrifluoromethyl-1,5,7,11-tetraoxaspiro[5.5]undecane]",melting point,,122.4 °C
"C=COCCCCO [BDVE, butanediol vinyl ether]",Rate Constant k,[1]; with EDMAB,3.6 min⁻¹
same,Rate Constant k,[1]; without EDMAB,1.1 min⁻¹
"C=COCCOCCOC=C [DEGDVE, di(ethylene glycol)divinyl ether]",Rate Constant k,[1]; with EDMAB,1.4 min⁻¹
same,Rate Constant k,[1]; without EDMAB,1.3 min⁻¹
